Measurements published in patent US20130310355A1, “LOW TOXICITY TOPICAL ACTIVE AGENT DELIVERY SYSTEM” (YOUNG PHARMACEUTICALS, INC., priority 2009, published 2013).

Experiment: Solubilization of retinol in cyclomethicone alone
Type: physicochemical
Conditions: retinol 0.1-0.2% w/v in cyclomethicone alone
From the text: Volatile organosiloxanes optionally are lightweight carriers that evaporate on application and thus have an elegant, light-weight “feel” on the skin. Volatile organosiloxanes, however, are typically limited in their ability to dissolve low polarity (i.e. usually greater than C7-C8)) organic compounds like retinoids. […] To address this issue vehicles were sought that would be both capable of creating clear solutions of active agent in a volatile organosiloxane carrier, but also have an appropriate evaporation rate in combination with the volatile organosiloxane when placed on the skin so as maintain the light-weight feel on the skin experienced by a user. A vehicle must also not promote unacceptable skin irritation when used at the concentration necessary in the composition.

## CC1=C(/C=C/C(C)=C/C=C/C(C)=C/CO)C(C)(C)CCC1 [retinol]
  Appearance of solution: hazy solutions
